The source of these data is ChEMBL document CHEMBL1155983, “Synthesis of novel [1,2]-diamines with antituberculosis activity” (Bioorg Med Chem Lett, 2009).

SMILES strings stand for the structures. Values after ≈ are worked out from the molar mass of the structure shown.

The test system of one data set is Mycobacterium tuberculosis. In words: Antituberculosis activity against Mycobacterium tuberculosis H37Rv by microbroth dilution assay.
Details: not given
It is filed as functional.
As usually defined, the MIC is the least concentration at which growth counts as inhibited. `CC(C)=CCC/C(C)=C/C(Cc1ccc(OC(F)(F)F)cc1)NCCNC1C2CC3CC(C2)CC1C3` (centres undefined) showed an MIC of 5.2 µM (≈ 2.62 µg/mL).

Turning to `COC12CC3CC(CC(C3)C1NCCNC/C=C(\C)CCC=C(C)C)C2` (centres undefined), the MIC worked out at 0.5 µM (≈ 0.18 µg/mL).

In turn, `CC(C)=CCC/C(C)=C/C(Cc1ccccc1)NCCNC1C2CC3CC(C2)CC1C3` (centres undefined) came in with an MIC of 1 µM (≈ 0.421 µg/mL).

In turn, `CC(C)=CCC/C(C)=C/CNCCNC1C2CC3CC1CC(F)(C3)C2` (centres undefined) showed an MIC of 0.6 µM (≈ 0.209 µg/mL). Against the preceding compound, the MIC is about 1.7-fold lower.

Compound `CC(C)=CCC/C(C)=C/C(Cc1ccc(F)cc1)NCCNC1C2CC3CC(C2)CC1C3` (centres undefined) registered an MIC of 3 µM (≈ 1.32 µg/mL). Against the preceding compound, the MIC is about 5-fold higher.

`CC(C)=CCC/C(C)=C/CNCCNC1C2CC3CC(C2)CC1(F)C3` (centres undefined) displayed an MIC of 0.3 µM (≈ 0.105 µg/mL).

Take `CC(C)=CCC/C(C)=C/CNCCNC1C2CC3CC(C2)CC1(O)C3` (centres undefined): inhibition of growth (MIC) required 0.6 µM (≈ 0.208 µg/mL).

For the compound `CCC(/C=C(\C)CCC=C(C)C)NCCNC1C2CC3CC(C2)CC1C3` (centres undefined), the MIC is 1.2 µM (≈ 0.43 µg/mL).

Turning to `CC(C)=CCC/C(C)=C/CNCCNC1C2CC3CC1CC(O)(C3)C2` (centres undefined), the MIC was 8.6 µM (≈ 2.98 µg/mL).

The compound `CC(C)=CCC/C(C)=C/C(C)NCCNC1C2CC3CC(C2)CC1C3` (centres undefined) displayed an MIC of 1.2 µM (≈ 0.414 µg/mL).

In turn, `COC12CC3CC(C1)C(NCCNC/C=C(\C)CCC=C(C)C)C(C3)C2` (centres undefined) yielded a minimum inhibitory concentration (MIC) of 1.7 µM (≈ 0.613 µg/mL).

`CC(C)=CCC/C(C)=C/CNCCNC1C2CC3CC(C2)CC1C3.Cl.Cl` (centres undefined): the MIC came out at 0.6 µM. Compared with the last compound, the MIC is about 2.8-fold lower.

System in another data set: not listed separately
In words: Oral bioavailability in rat. It is filed as ADME, organism-based. To be noted: in vivo.
The bioavailability is the share of a dose that reaches the circulation, judged against a reference dose that is usually intravenous. Higher therefore signals good availability. Regarding `CC(C)=CCC/C(C)=C/CNCCNC1C2CC3CC(C2)CC1C3.Cl.Cl` (centres undefined), the bioavailability came to 12%.

System in a further data set: not listed separately
In words: Oral bioavailability in dog. The format is ADME, organism-based, Canis lupus familiaris. Particulars: in vivo.
`CC(C)=CCC/C(C)=C/CNCCNC1C2CC3CC(C2)CC1C3.Cl.Cl` (centres undefined): the bioavailability was 3.8%.
